Experiments:
[1] = test system: carrageenan-induced rat paw edema; assay: carrageenan-induced rat paw edema method (anti-inflammatory activity); format: in vivo; conditions: compared with standard drug indomethacin
Method: For the experimental results described below, healthy male albino rats (200 g-220 g) were used for the study. The animals were kept in standard plastic animal cages in groups of six animals each with 12 hour light and dark cycle at 25±2° C. The rats were fed on standard rat chow and provided water ad libitum. The animals were acclimatized to laboratory conditions for a week prior to experiments. Anti-inflammatory activity of the synthesized compounds S1-S18 was determined by the carrageenan-induced rat paw edema method. The compounds were tested at equimolar oral dose and were compared with the standard drug indomethacin. […]. Three compounds, namely S14, S7 and S3 containing R=2,4,5-trimethoxyphenyl; […].
Anti-inflammatory activity was determined by a carrageenan-induced rat paw edema method. Male rats weighing 200 g were housed in a room with a controlled temperature and 12 hour light/12 hour dark cycle, housed in a specific pathogen free environment, and fed standard rodent chow and given water ad libitum. Each treatment group and vehicle group consisted of six randomly assigned animals. Compounds were administered p.o. suspension. Paw edema was induced by intradermal injection of 50 μL of 1% carrageenan into the sub plantar region of the right hind paw, after one hour of compound administration. […] The control group received only the vehicle. Increase in paw edema was compared with that in the control group and percent inhibition was calculated taking the values in the control group as 0% inhibition.

[2] = test system: nociceptive response on hot plate; assay: hot plate test (analgesic activity); format: in vivo; set-up: concentration or dose not given beside the values; conditions: hot plate 58° C.; mice; 120 min after injection
Method: Male albino Swiss mice (25 g body weight) were divided into various groups (n=6). Each mouse was initially placed on a hot plate thermostatically maintained at 58° C. […] This time was considered as the control reaction time. A cut-off time of 60 s was used to avoid damage to the paws. To test the analgesic activity of the compounds, each group of mice was treated with one dose of the test compounds. The reaction time was then retested at 0 hour and 120 min after injection (each animal acted as its own control). The percentage changes in the reaction were then calculated.

[3] = LD50 determination by the Karber method; conditions: in vivo, mouse, 24 hours observation
Method: The LD50 of compound S3 was determined by the Karber method. […] For LD50 determination, an observation was made for each mouse for 24 hours and symptoms of toxicity and rate of mortality in each group were noted. At the end of the study period, expired animals were counted for the calculation of LD50. The following method was used for the determination of LD50: LD50=LD100−Σ×(a×b)/n, where n is the total number of animals in a group, a is the difference between two successive doses of administered extract/substance, b is the average number of dead animals in two successive doses, and LD100 is the lethal dose causing 100% death of all test animals.

[4] = test system: ethanol-induced gastric ulcer; assay: ethanol induced ulcer model (gastro-protective activity: ulcer index, mucus, PAS staining, histology); format: in vivo, rat
Excerpt: Gastric mucus plays crucial role in gastro-protection. […] The mucus was formed from mucin-type glycoprotein. The mucus gel adhering to the gastric mucosal surface defends the epithelium beneath against acid, pepsin and necrotizing agents, such as ethanol and indomethacin. […] Gastric wall mucus coating might be relieved in the repair of the damaged gastric epithelium. […] The rats were grouped into five groups (n=6). Group I and II received saline solution and served as negative-control and ulcer-control, respectively. […] The animals were sacrificed 1 hour later under anesthesia and their stomachs were quickly removed for further studies. Periodic acid-Schiff (PAS) staining was used to observe the glycogen level in control and pretreated animals. […] Ethanol-induced gastric ulcers result from several mechanisms, including reduction of gastric mucus and impaired mucosal permeability, and leads to increased leakage of hydrogen ions from the lumen and decreased transluminal membrane potential difference. With regard to the gross gastric lesion evaluation, the stomach of each rat was opened along the greater arc and washed with saline water to remove gastric contents. Gastric ulcers appear as elongated bands on the gastric mucosa with hemorrhagic lesions being parallel to the long axis of the stomach. The mucosa was assessed for damage under dissecting microscope (1.8×) and a planimeter was used to measure the ulcers area (hemorrhagic lesions). The length and width of each lesion were measured and the sum of the area of all lesions for each stomach was expressed as the ulcer area (mm^2). To determine mucus production of the gastric mucosa, the gastric mucosa of each rat was gently scraped using a glass slide and the mucus obtained was weighed using a precision electronic balance. For the histologic studies, gastric tissues were collected and fixed in 10% formalin after sacrifice. Then, each sample was embedded in paraffin and cut into 5 μm thick slices for morphological and pathological evaluation. Tissue sections were stained with hematoxylin and eosin (H & E) and examined under a light microscope.

COX-1 = assay: Western blot of COX-1 expression in rat gastric mucosa damaged by ethanol; format: in vivo; conditions: ethanol induced model, S3 25.6 mg/kg, indomethacin 25 mg/kg
gastric mucosa = conditions: rat, in vivo
Method: For acute ulcerogenesis testing, albino rats were divided into different groups consisting of six animals in each group. […] Control rats received p.o. administration of vehicle (suspension of 1% methyl cellulose). Food (but not water) was removed 24 hours before administration of the test compounds. After the drug treatment, the rats were fed a normal diet for 17 hours and then sacrificed. The stomach was removed and opened along the greater curvature, washed with distilled water and cleaned gently by dipping in saline. The mucosal damage was examined by means of a magnifying glass. For each stomach, the mucosal damage was assessed according to the following scoring system: 0.5 redness; 1.0 spot ulcers; 1.5 hemorrhagic streaks; 2.0 ulcers <3 but ≦5; 3.0 ulcers >5. All of the compounds were tested at equimolar oral doses.

[5] = test system: malondialdehyde (MDA) content; conditions: rat, in vivo
Method: The mixture was heated at 95° C. for 60 minutes. After cooling, the reactants were supplemented with 5 mL of a mixture of n-butanol:pyridine (15:1 v/v), shaken vigorously for 1 minute and centrifuged for 10 minutes at 4000 rpm. The supernatant organic layer was taken out and absorbance was measured at 532 nm on a UV spectrophotometer. The results were expressed as nmol MDA/100 mg tissue. Data are expressed as mean±S.E.M., and the student's t-test was applied to determine the significance of the difference between the standard group and rats treated with the test compounds. The lipid peroxidation was measured as nanomoles of MDA content/100 mg of liver and kidney tissue.

COX-2 = assay: Western blot of COX-2 expression in rat gastric mucosa damaged by ethanol; conditions: ethanol induced model, S3 25.6 mg/kg, indomethacin 25 mg/kg
Method: A Western blot was performed for COX-1. […] For the Western blot analysis, 20 μg of protein was transferred to PVDF membranes, blocked in 5% skim milk in TBS buffer 1% Tween 20, and then incubated overnight with the COX-1, COX-2 and β-actin, followed by HRP-conjugated anti-rat/rabbit/goat antibodies for 2 hours at 25° C. Bands were visualized with the Luminata Western Chemiluminescent HRP Substrates and densitometric analysis of bands were assessed using LI-COR C-DiGit blot scanners.

[6] = pretreated rats, ethanol induced ulcer

COc1ccc2[nH]c(C)c(CC(=O)N/N=C/c3cccc([N+](=O)[O-])c3)c2c1 [Compound S3, 2-(5-methoxy-2-methyl-1H-indol-3-yl)-N′-[(E)-(3-nitrophenyl)methylidene] acetohydrazide]
anti-inflammatory activity (in words) [1]: most potent compounds with significant anti-inflammatory activity
analgesic activity (percentage change in reaction time) [2]: 61.36%
LD50 at 24 h [3]: 35 mg/kg
histology of gastric tissue (in words) ([4]; S3 25.6 mg/kg, indomethacin 25 mg/kg, ethanol induced ulcer): normal glandular pattern with mild inflammation and infiltration of leucocytes
PAS staining of gastric mucosa (in words) [4, 6]: substantially continuous PAS-positive mucous gel layer
mucus production by gastric mucosa (in words) [4, 6]: increased gradually
Ulcer index Mean ± SEM ([4]; pretreatment orally (S3 25.6 mg/kg, indomethacin 25 mg/kg) 1 hour before ethanol 95% 20 mL/kg, rats): 2.83±0.87 mm^2
COX-1 expression / inhibition by Western blot (in words) (COX-1): weak COX-1 expression
ulcerogenic activity (in words) (gastric mucosa): less ulcerogenic than the reference drug indomethacin
lipid peroxidation (in words) [5]: maximum reduction in gastric ulceration and lipid peroxidation
COX-2 expression / inhibition by Western blot (in words) (COX-2): potent COX-2 inhibition
